The results in this text go back to article PMC3182149 (Phytochemistry letters, 2011).

Assay [1] has as its system panel of three human cancer cells. The assay can be described thus: Cytotoxicity assay, panel of three human cancer cells. To be noted: range over the panel of three human cancer cells. In kind it is cell-based.
Assay [2] relates to LNCaP hormone-dependent prostate cancer cells. The assay can be described thus: Cytotoxicity assay, LNCaP hormone-dependent prostate cancer cells. In kind it is cell-based, human.
Assay [3] deals with MCF-7 human breast cancer cells. The assay can be described thus: Cytotoxicity assay, MCF-7 human breast cancer cell line. In kind it is cell-based.
Assay [4] concerns Lu1 human lung cancer cells. The assay can be described thus: Cytotoxicity assay, Lu1 human lung cancer cells. In kind it is cell-based.
Assay [5] concerns the target NF-κB p65 (Homo sapiens, UniProt Q04206). The assay can be described thus: Enzyme-based ELISA NF-κB p65 assay. Particulars: inhibition of binding of NF-κB to DNA; Hela nuclear extract. The assay is classed as biochemical.

NF-κB p65, sequence (Q04206 whole entry): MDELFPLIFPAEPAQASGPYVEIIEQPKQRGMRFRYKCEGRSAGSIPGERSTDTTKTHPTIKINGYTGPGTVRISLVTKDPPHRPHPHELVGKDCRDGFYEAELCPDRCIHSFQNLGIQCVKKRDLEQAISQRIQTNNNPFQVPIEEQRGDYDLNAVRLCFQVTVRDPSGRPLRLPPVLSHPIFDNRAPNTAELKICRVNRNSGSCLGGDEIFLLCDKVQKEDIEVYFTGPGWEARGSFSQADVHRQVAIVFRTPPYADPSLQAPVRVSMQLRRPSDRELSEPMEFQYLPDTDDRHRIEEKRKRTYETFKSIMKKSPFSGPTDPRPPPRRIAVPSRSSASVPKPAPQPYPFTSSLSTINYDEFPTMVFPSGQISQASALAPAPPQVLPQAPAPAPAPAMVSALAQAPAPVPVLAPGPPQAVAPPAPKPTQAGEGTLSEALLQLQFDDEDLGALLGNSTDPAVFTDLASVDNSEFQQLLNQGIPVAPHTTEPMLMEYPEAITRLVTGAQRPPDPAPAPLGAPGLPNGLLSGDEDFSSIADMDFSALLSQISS
NF-κB p65, sequence (P19838 1-433 partner limits assumed): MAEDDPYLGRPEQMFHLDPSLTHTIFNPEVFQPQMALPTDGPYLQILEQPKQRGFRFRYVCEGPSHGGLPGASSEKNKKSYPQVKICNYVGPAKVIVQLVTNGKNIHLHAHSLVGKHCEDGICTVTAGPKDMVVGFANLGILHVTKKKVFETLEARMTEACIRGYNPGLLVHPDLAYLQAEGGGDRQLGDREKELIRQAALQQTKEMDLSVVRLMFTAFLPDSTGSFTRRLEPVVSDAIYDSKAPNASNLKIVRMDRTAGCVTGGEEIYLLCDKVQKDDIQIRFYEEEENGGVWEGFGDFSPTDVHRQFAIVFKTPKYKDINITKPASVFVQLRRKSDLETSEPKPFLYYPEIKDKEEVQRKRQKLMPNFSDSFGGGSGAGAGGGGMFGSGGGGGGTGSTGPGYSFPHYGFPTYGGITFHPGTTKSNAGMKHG

Compound `COc1ccc([C@@H]2CC(=O)c3c(O)cc(OC)cc3O2)cc1` [Compound 3, (S)-5-hydroxy-7,4′-dimethoxyflavanone] showed an ED50 values in assay [1] of 1.1 to 6.7 µM. In addition, the ED50 in assay [2] is 6.7 µM; in assay [3] it was 1.1 µM; in assay [4], 4.7 µM.
On to “methyl 3,4,5-O-tricaffeoyl quinate [Compound 4]”, for which the ED50 in assay [5] turned out to be 10.3 µM.
